Common to all, as to type: cell-based, human
One test has as its system PC-3 cells. The experiment in a line: WST-1 cell proliferation assay, PC-3. To be noted: for IC50: Homo sapiens, PC-3, 72 h, WST-1, three days of exposure, mean ± SD, n = 3; for IC50 (Silibinin)/IC50(Derivative) PC-3: fold potency relative to silibinin. The procedure: (§1) The in vitro antiproliferative activities of six 7-O-substituted and 26 3-O-substituted silybin derivatives were evaluated using the WST-1 cell proliferation assay, according to the procedure as described in the Experimental Section in both androgen-sensitive (LNCaP) and androgen-insensitive (PC-3 and DU145) human prostate cancer cell lines. Silibinin and docetaxel were used as a positive control for comparison in the parallel experiments and the IC50 values calculated from the dose-response curves are summarized in Table 1. […] A three-carbon linker in 11 and 29, as well as a five-carbon linker in 31, 37 and 40, are beneficial to the potency.
(§2) All cell lines were initially purchased from American Type Culture Collection (ATCC^TM) (Manassas, VA, USA). The PC-3 and LNCaP prostate cancer cell lines were routinely cultured in RPIM-1640 medium supplemented with 10% FBS and 1% penicillin/streptomycin. The DU145 prostate cancer cells were routinely cultured in Eagle’s Minimum Essential Medium (EMEM) supplemented with 10% FBS and 1% penicillin/streptomycin. Cultures were maintained in a high humidity environment supplemented with 5% carbon dioxide at a temperature of 37 °C.
(§3) PC-3, DU145, or LNCaP cells were plated in 96-well plates at a density of 3,200 per well in 200 µL of culture medium. The cells were then separately treated with silibinin, or synthesized silibinin derivatives, at five different doses for three days, while equal treatment volumes of DMSO (0.25%) were used as the vehicle control. The cells were cultured in a CO2 incubator at 37 °C for three days. A total of 10 µL of the premixed WST-1 cell proliferation reagent (Clontech) was added to each well. After mixing gently for one min on an orbital shaker, the cells were incubated for an additional 3 h at 37 °C. To ensure a homogeneous distribution of color, it is important to mix gently on an orbital shaker for one min. The absorbance of each well was measured using a microplate reader (Synergy HT, BioTek, Winooski, VT, USA) at a wavelength of 430 nm. […] For calculating the IC50 values, a linear proliferative inhibition was made based on at least five dosages for each compound.

In the next test the test system is DU145 cells. The test can be described thus: WST-1 cell proliferation assay, DU145. To be noted: for IC50: Homo sapiens, DU-145, 72 h, WST-1, three days of exposure, mean ± SD, n = 3; for IC50 (Silibinin)/IC50(Derivative) DU145: fold potency relative to silibinin. The procedure: as §1, §2, §3
Another test concerns LNCaP cells. The test can be described thus: WST-1 cell proliferation assay, LNCaP. To be noted: for IC50: Homo sapiens, LNCaP, 72 h, WST-1, three days of exposure, mean ± SD, n = 3; for IC50 (Silibinin)/IC50(Derivative) LNCaP: fold potency relative to silibinin. The procedure:
as §1, §2, §3

As to `CCCN(CCC)CCCCOc1c(-c2ccc3c(c2)OC(c2ccc(OC)c(OC)c2)C(CO)O3)oc2cc(OC)cc(OC)c2c1=O` (stereo not drawn) [Compound 27], in the test with PC-3 cells, the IC50 worked out at 3.77 ± 0.41 µM and the “IC50 (Silibinin)/IC50(Derivative) PC-3” value is listed as 19. Further, in the test with DU145 cells, the half-inhibitory concentration (IC50) came to 5.39 ± 0.53 µM and the “IC50 (Silibinin)/IC50(Derivative) DU145” value worked out at 17. In the test on LNCaP cells, the IC50 turned out to be 4.02 ± 1.55 µM and the “IC50 (Silibinin)/IC50(Derivative) LNCaP” value was 11.

As to `COc1cc(OC)c2c(=O)c(OCCCCN(C)C)c(-c3ccc4c(c3)OC(c3ccc(OC)c(OC)c3)C(CO)O4)oc2c1` (stereo not drawn) [Compound 21], in the test with PC-3 cells, the IC50 is 5.15 ± 2.13 µM and the “IC50 (Silibinin)/IC50(Derivative) PC-3” value is listed as 14. For the same compound, in the test on DU145 cells, the half-maximal inhibitory concentration (IC50) was determined as 9.97 ± 3.34 µM and the “IC50 (Silibinin)/IC50(Derivative) DU145” value came out at 9. Moreover, in the test on LNCaP cells, the IC50 was found to be 5.13 ± 0.89 µM and the “IC50 (Silibinin)/IC50(Derivative) LNCaP” value came to 9.

For the compound `COc1cc(OC)c2c(=O)c(OCCCN3CCCC3)c(-c3ccc4c(c3)OC(c3ccc(OC)c(OC)c3)C(CO)O4)oc2c1` (stereo not drawn) [Compound 32], in the test with PC-3 cells, the half-maximal inhibitory concentration (IC50) is 2.86 ± 0.79 µM and the “IC50 (Silibinin)/IC50(Derivative) PC-3” value came out at 25. Besides, in the test on DU145 cells, the IC50 was 14.1 ± 2.79 µM and the “IC50 (Silibinin)/IC50(Derivative) DU145” value was 7. In addition, in the test on LNCaP cells, the IC50 turned out to be 5.89 ± 0.3 µM and the “IC50 (Silibinin)/IC50(Derivative) LNCaP” value came out at 7.

Take `COc1cc(OC)c2c(=O)c(OCCCCN3CCCC3)c(-c3ccc4c(c3)OC(c3ccc(OC)c(OC)c3)C(CO)O4)oc2c1` (stereo not drawn) [Compound 33]: in the test on PC-3 cells, the IC50 amounted to 7.49 ± 1.98 µM and the “IC50 (Silibinin)/IC50(Derivative) PC-3” value is given as 10. In addition, in the test on DU145 cells, the IC50 was determined as 19.8 ± 2.38 µM and the “IC50 (Silibinin)/IC50(Derivative) DU145” value is recorded as 5. Besides, in the test on LNCaP cells, the IC50 was found to be 8.06 ± 1.44 µM and the “IC50 (Silibinin)/IC50(Derivative) LNCaP” value is on record as 5.

Consider `COc1cc(OC)c2c(=O)c(OCCCCCN(C)C)c(-c3ccc4c(c3)OC(c3ccc(OC)c(OC)c3)C(CO)O4)oc2c1` (stereo not drawn) [Compound 22], for which, in the test on PC-3 cells, the 50% inhibitory concentration (IC50) is 3.47 ± 2.23 µM and the “IC50 (Silibinin)/IC50(Derivative) PC-3” value is on record as 21. Besides, in the test on DU145 cells, the IC50 was 6.73 ± 0.45 µM and the “IC50 (Silibinin)/IC50(Derivative) DU145” value is reported as 14. Also, in the test on LNCaP cells, the IC50 was 5.07 ± 0.52 µM and the “IC50 (Silibinin)/IC50(Derivative) LNCaP” value was found to be 9.

Regarding `COc1cc(OC)c2c(=O)c(OCCCN3CCNCC3)c(-c3ccc4c(c3)OC(c3ccc(OC)c(OC)c3)C(CO)O4)oc2c1` (stereo not drawn) [Compound 41], in the test on PC-3 cells, the IC50 was determined as 9.98 ± 4.94 µM and the “IC50 (Silibinin)/IC50(Derivative) PC-3” value is 7. In the test on DU145 cells, the half-inhibitory concentration (IC50) is more than 50 µM and the “IC50 (Silibinin)/IC50(Derivative) DU145” value was less than 2. Moreover, in the test on LNCaP cells, the half-maximal inhibitory concentration (IC50) is 11.4 ± 5.91 µM and the “IC50 (Silibinin)/IC50(Derivative) LNCaP” value turned out to be 4.

With `COc1ccc(C2Oc3cc(-c4oc5cc(OCCCN6CCOCC6)cc(OC)c5c(=O)c4OC)ccc3OC2CO)cc1OC` (stereo not drawn) [Compound 13], in the test on PC-3 cells, the IC50 was determined as 26.5 ± 1 µM and the “IC50 (Silibinin)/IC50(Derivative) PC-3” value is listed as 3. In addition, in the test on DU145 cells, the concentration for half-maximal inhibition (IC50) was 45.1 ± 11.5 µM and the “IC50 (Silibinin)/IC50(Derivative) DU145” value stood at 2. For the same compound, in the test with LNCaP cells, the IC50 was 12.7 ± 6.28 µM and the “IC50 (Silibinin)/IC50(Derivative) LNCaP” value worked out at 3.

For the compound `CCN(CC)CCCCCOc1c(-c2ccc3c(c2)OC(c2ccc(OC)c(OC)c2)C(CO)O3)oc2cc(OC)cc(OC)c2c1=O` (stereo not drawn) [Compound 25], in the test on PC-3 cells, the half-inhibitory concentration (IC50) was 6.41 ± 0.4 µM and the “IC50 (Silibinin)/IC50(Derivative) PC-3” value amounted to 11. Besides, in the test with DU145 cells, the IC50 is 6.64 ± 0.54 µM and the “IC50 (Silibinin)/IC50(Derivative) DU145” value turned out to be 14. In addition, in the test with LNCaP cells, the IC50 is 6.33 ± 0.34 µM and the “IC50 (Silibinin)/IC50(Derivative) LNCaP” value was determined as 7.

`COc1cc(OC)c2c(=O)c(OCCCN3CCCCC3)c(-c3ccc4c(c3)OC(c3ccc(OC)c(OC)c3)C(CO)O4)oc2c1` (stereo not drawn) [Compound 35]: in the test with PC-3 cells, the IC50 was found to be 2.37 ± 0.7 µM and the “IC50 (Silibinin)/IC50(Derivative) PC-3” value is reported as 31. Further, in the test with DU145 cells, the half-maximal inhibitory concentration (IC50) came to 7.26 ± 1.12 µM and the “IC50 (Silibinin)/IC50(Derivative) DU145” value is 13. Also, in the test with LNCaP cells, the IC50 worked out at 2.28 ± 0.42 µM and the “IC50 (Silibinin)/IC50(Derivative) LNCaP” value came out at 19.

For `CCN(CC)CCCOc1c(-c2ccc3c(c2)OC(c2ccc(OC)c(OC)c2)C(CO)O3)oc2cc(OC)cc(OC)c2c1=O` (stereo not drawn) [Compound 23], in the test on PC-3 cells, the IC50 is 5.16 ± 0.94 µM and the “IC50 (Silibinin)/IC50(Derivative) PC-3” value is reported as 14. In the test on DU145 cells, the IC50 stood at 9.21 ± 0.37 µM and the “IC50 (Silibinin)/IC50(Derivative) DU145” value was 10. For the same compound, in the test with LNCaP cells, the IC50 was determined as 3.09 ± 0.15 µM and the “IC50 (Silibinin)/IC50(Derivative) LNCaP” value was found to be 14.

The values above are taken from PMC6320956, “O-Aminoalkyl-O-Trimethyl-2,3-Dehydrosilybins: Synthesis and In Vitro Effects Towards Prostate Cancer Cells” (Molecules, 2018).
